The record followed here is ChEMBL document CHEMBL3508693 (2016).

One data set concerns the target CYP2C19 (Homo sapiens, UniProt P33261). Briefly: Inhibitory activity of 200 uM SPP100 on 1156 Pmoles of cDNA-derived CYP2C19 enzyme in microsome prepared from human lymphoblastoid cell line. In kind it is ADME, microsomes. More on the design: conc 200 uM, interact cpd conc 50 uM. The conditions noted are these: probe (S)-mephenytoin (50 uM).
The next data set deals with CYP2C9 (Homo sapiens, UniProt P11712). The experiment in a line: Inhibition of CYP2C9 in human liver microsomes from 10 healthy donors at 200 uM aliskiren (SPP100). More on the design: conc 200 uM. Conditions: probe S-warfarin (7-hydroxylation). In kind it is ADME, Microsome.
A short description of data set [1]: Oral clearance of SPP100 following single oral dose of SPP100 75 mg capsule studied in healthy human. It is filed as ADME, organism-based. The conditions noted are these: plasma.
A short description of data set [2]: Terminal elimination half-life of SPP100 following single oral dose of SPP100 600 mg capsule studied in healthy human. In kind it is ADME, organism-based. Conditions: plasma.
Data set [3] in a line: Cmax (0-96h) of total radioactivity following oral administration of [14C] aliskiren hemifumarate at 100 mg.Kg-1 level in rat. It is filed as ADME, organism-based, Albino HAN:WIST, Plasma. The conditions noted are these: in vivo.
The nature of data set [4]: Cmax of [14C] aliskiren hemifumarate following single oral dose of [14C] aliskiren hemifumarate at 500 mg.Kg-1 level in mouse. It is filed as ADME, organism-based, TgRasH2, Plasma. Conditions: in vivo.
The nature of data set [5]: Excretion of radioactivity (0-24h) in urine following single intravenous dose of 10 mg.Kg-1 [14C] aliskiren hemifumarate in mouse. Conditions: in vivo. In kind it is ADME, organism-based, TgRasH2.
Data set [6] can be described thus: Excretion (24h) of radioactivity in faeces following intravenous administration of [14C] aliskiren hemifumarate at 10 mg.Kg-1 level in rat. In kind it is ADME, organism-based, Lister-Hooded, Feces. Conditions: in vivo.
The nature of data set [7]: % of radioactivity (48h) recovered in bile of receiver rat following duodenal infusion of radioactivity through bile from donor rat treated with single intravenous administration of 10 mg.Kg-1 [14C] aliskiren hemifumarate. It is filed as ADME, organism-based, HAN:WIST(SPF). Conditions: in vivo.
Data set [8] in a line: Excretion of radioactivity (24-48h) in urine following single oral dose of 500 mg.Kg-1 [14C] aliskiren hemifumarate in mouse. The conditions noted are these: in vivo. It is filed as ADME, organism-based, TgRasH2.
The nature of data set [9]: Absorption (0-168h) of total radioactivity following single oral administration of [14C] aliskiren hemifumarate at 3 mg.Kg-1 level in marmoset. Conditions: in vivo. It is filed as ADME, organism-based, Callithrix jacchus, Plasma.
The nature of data set [10]: Excretion of radioactivity (0-384h) in urine following 10 day repeated oral administration of [14C] aliskiren hemifumarate at 100 mg.Kg-1 level studied in rat. It is filed as ADME, organism-based, Albino HAN:WIST. Conditions: in vivo.
A short description of data set [11]: Concentration of radioactivity in the liver following repeated oral administration of [14C] aliskiren hemifumarate at 100 mg.Kg-1 level studied at 24h after 7th dose in rat. It is filed as ADME, organism-based, Albino HAN:WIST. The conditions noted are these: in vivo.
Data set [12] is described as follows: Excretion of radioactivity (48-72h) in faeces following single oral dose of 100 mg.Kg-1 [14C] aliskiren hemifumarate in rat. In kind it is ADME, organism-based, Albino HAN:WIST, Feces. Conditions: in vivo.
A short description of data set [13]: AUC of [14C] aliskiren hemifumarate following single oral dose of [14C] aliskiren hemifumarate at 500 mg.Kg-1 level in mouse. In kind it is ADME, organism-based, TgRasH2, Plasma. The conditions noted are these: in vivo.
The next data set deals with Cytochrome P450 3A4 (Homo sapiens, UniProt P08684). The experiment in a line: Activity of human recombinant CYP3A4 assessed as enzyme contribution (% total relative CL) towards [14C]SPP100 hemifumarate metabolism in human liver microsome. It is filed as ADME. The conditions noted are these: microsomes.
The nature of data set [14]: AUC of [14C] aliskiren hemifumarate following single intravenous dose of [14C] aliskiren hemifumarate at 10 mg.Kg-1 level in mouse. It is filed as ADME, organism-based, TgRasH2, Plasma. Conditions: in vivo.
A short description of data set [15]: Excretion of radioactivity (48-72h) in urine following single oral dose of 500 mg.Kg-1 [14C] aliskiren hemifumarate in mouse. It is filed as ADME, organism-based, TgRasH2. Conditions: in vivo.
A short description of data set [16]: Concentration of radioactivity in the kidney medulla following repeated oral administration of [14C] aliskiren hemifumarate at 100 mg.Kg-1 level studied at 2h after 7th dose in rat. In kind it is ADME, organism-based, Albino HAN:WIST, Renal medulla. The conditions noted are these: in vivo.
The nature of data set [17]: Excretion of radioactivity (48-72h) in faeces following single intravenous dose of 10 mg.Kg-1 [14C] aliskiren hemifumarate in mouse. It is filed as ADME, organism-based, TgRasH2, Feces. The conditions noted are these: in vivo.
Data set [18] is described as follows: Excretion of radioactivity (0-72h) in urine following single oral dose of 500 mg.Kg-1 [14C] aliskiren hemifumarate in mouse. It is filed as ADME, organism-based, TgRasH2. Conditions: in vivo.
Data set [19] is described as follows: Concentration of radioactivity in the colon wall following repeated oral administration of [14C] aliskiren hemifumarate at 100 mg.Kg-1 level studied at 2h after 3rd dose in rat. In kind it is ADME, organism-based, Albino HAN:WIST. Conditions: in vivo.
Data set [20] is described as follows: Excretion of radioactivity (0-384h) in faeces following 10 day repeated oral administration of [14C] aliskiren hemifumarate at 100 mg.Kg-1 level studied in rat. The conditions noted are these: in vivo. It is filed as ADME, organism-based, Albino HAN:WIST, Feces.
A short description of data set [21]: Cmin of aliskiren hemifumarate following repeated oral administration of [14C] aliskiren hemifumarate at 100 mg.Kg-1 level studied at steady state during a dosing interval in rat. In kind it is ADME, organism-based, Albino HAN:WIST. Conditions: in vivo.
The nature of data set [22]: AUC of aliskiren hemifumarate following single dosing of SPP100B oral solution at 80 mg level studied on day 1 in men. In kind it is ADME, organism-based. The conditions noted are these: male, human, plasma.
Data set [23] in a line: Cmax/dose of aliskiren hemifumarate following 4 week oral dietary dosing of aliskiren hemifumarate at 1500 mg.Kg-1 level in female mouse. It is filed as ADME, organism-based, CB6F1-TGrasH2. The conditions noted are these: in vivo, 672 h.
Data set [24] can be described thus: Tmax of aliskiren hemifumarate following 2 week oral dosing of aliskiren hemifumarate at 10 mg.Kg-1 level studied on day 1 in female Callithrix jacchus. In kind it is ADME, organism-based. The conditions noted are these: marmoset, plasma.
The nature of data set [25]: Cmax of aliskiren hemifumarate following 2 week oral dosing of aliskiren hemifumarate at 10 mg.Kg-1 level studied on day 1 in female Callithrix jacchus. It is filed as ADME, organism-based. The conditions noted are these: marmoset, plasma.
Data set [26] is described as follows: Cmax (0-96h) of unlabeled aliskiren hemifumarate following intravenous administration of aliskiren hemifumarate at 10 mg.Kg-1 level in rat. It is filed as ADME, organism-based. Conditions: Albino HAN:WIST, plasma.
Data set [27] in a line: AUC(0-24h) of aliskiren hemifumarate following 2 week oral dosing of aliskiren hemifumarate at 10 mg.Kg-1 level studied on day 1 in male Callithrix jacchus. The conditions noted are these: marmoset, plasma. In kind it is ADME, organism-based.
Data set [28] in a line: Cmaxspec of aliskiren hemifumarate following 2 week oral dosing of aliskiren hemifumarate at 100 mg.Kg-1 level studied on day 1 in female Callithrix jacchus. The conditions noted are these: marmoset, in vivo, 336 h. It is filed as ADME, organism-based, Plasma.
Data set [29] in a line: AUC of unlabeled aliskiren hemifumarate following single intravenous dose of aliskiren hemifumarate at 10 mg.Kg-1 level in mouse. Conditions: TgRasH2, mouse, plasma. In kind it is ADME, organism-based.
A short description of data set [30]: Tmax of aliskiren hemifumarate following 8 day once-daily dosing of SPP100B oral solution at 640 mg level studied on day 8 in men. It is filed as ADME, organism-based. The conditions noted are these: male, human, plasma.
Data set [31] can be described thus: AUC of aliskiren hemifumarate following 8 day once-daily dosing of SPP100B oral solution at 80 mg level studied on day 8 in men. It is filed as ADME, organism-based. Conditions: male, human, plasma.
Data set [32] can be described thus: Cmax of aliskiren hemifumarate following 4 week oral dietary dosing of aliskiren hemifumarate at 1000 mg.Kg-1 level in female mouse. In kind it is ADME, organism-based. The conditions noted are these: CB6F1-TGrasH2, mouse, in vivo.
Data set [33] is described as follows: Cmax of aliskiren hemifumarate following 8 day once-daily dosing of SPP100B oral solution at 640 mg level studied on day 8 in men. It is filed as ADME, organism-based. The conditions noted are these: male, human, plasma.
A short description of data set [34]: Tmax of aliskiren hemifumarate following 4 week oral dietary dosing of aliskiren hemifumarate at 500 mg.Kg-1 level in male mouse. In kind it is ADME, organism-based. The conditions noted are these: CB6F1-TGrasH2, mouse, in vivo.
A short description of data set [35]: Cmax/dose of aliskiren hemifumarate following 4 week oral dietary dosing of aliskiren hemifumarate at 1500 mg.Kg-1 level in male mouse. In kind it is ADME, organism-based, CB6F1-TGrasH2. Conditions: in vivo, 672 h.
Data set [36] in a line: Effect of 2 week oral dosing of aliskiren hemifumarate at 100 mg.Kg-1 level on plasma creatinine level in male Callithrix jacchus. Conditions: marmoset, 336 h. It is filed as toxicity, organism-based.
Data set [37] is described as follows: Effect of 2 week oral dosing of aliskiren hemifumarate at 10 mg.Kg-1 level on blood urea nitrogen level in female Callithrix jacchus. Conditions: marmoset, 336 h. It is filed as toxicity, organism-based, Plasma.

CYP2C9, sequence (P11712 whole entry): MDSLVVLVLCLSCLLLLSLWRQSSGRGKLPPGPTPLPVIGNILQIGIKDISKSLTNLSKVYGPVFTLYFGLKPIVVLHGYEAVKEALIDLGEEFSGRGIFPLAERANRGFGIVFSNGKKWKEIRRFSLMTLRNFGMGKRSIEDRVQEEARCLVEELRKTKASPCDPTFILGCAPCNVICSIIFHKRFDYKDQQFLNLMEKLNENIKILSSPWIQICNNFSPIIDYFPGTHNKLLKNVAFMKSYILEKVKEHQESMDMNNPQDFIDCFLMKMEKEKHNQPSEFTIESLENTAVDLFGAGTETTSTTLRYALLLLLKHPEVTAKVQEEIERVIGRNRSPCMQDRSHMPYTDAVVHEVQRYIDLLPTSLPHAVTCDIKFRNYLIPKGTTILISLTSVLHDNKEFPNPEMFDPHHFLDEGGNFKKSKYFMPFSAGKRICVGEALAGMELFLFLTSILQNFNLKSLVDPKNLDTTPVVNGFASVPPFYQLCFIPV
Cytochrome P450 3A4, sequence (P08684 whole entry): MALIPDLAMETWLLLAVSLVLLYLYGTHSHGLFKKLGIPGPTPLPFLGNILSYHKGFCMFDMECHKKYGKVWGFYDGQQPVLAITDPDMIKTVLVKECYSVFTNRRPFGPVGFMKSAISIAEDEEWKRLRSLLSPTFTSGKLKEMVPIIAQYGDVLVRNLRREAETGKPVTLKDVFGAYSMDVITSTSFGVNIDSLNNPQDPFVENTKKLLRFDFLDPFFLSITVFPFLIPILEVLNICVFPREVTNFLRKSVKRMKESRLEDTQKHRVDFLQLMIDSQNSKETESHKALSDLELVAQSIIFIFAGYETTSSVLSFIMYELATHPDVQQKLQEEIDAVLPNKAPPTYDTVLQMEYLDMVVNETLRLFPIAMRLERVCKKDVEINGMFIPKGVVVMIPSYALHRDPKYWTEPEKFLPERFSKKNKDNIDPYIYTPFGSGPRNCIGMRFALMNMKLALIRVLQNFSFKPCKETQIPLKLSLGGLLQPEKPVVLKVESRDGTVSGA
CYP2C19, sequence (P33261 whole entry): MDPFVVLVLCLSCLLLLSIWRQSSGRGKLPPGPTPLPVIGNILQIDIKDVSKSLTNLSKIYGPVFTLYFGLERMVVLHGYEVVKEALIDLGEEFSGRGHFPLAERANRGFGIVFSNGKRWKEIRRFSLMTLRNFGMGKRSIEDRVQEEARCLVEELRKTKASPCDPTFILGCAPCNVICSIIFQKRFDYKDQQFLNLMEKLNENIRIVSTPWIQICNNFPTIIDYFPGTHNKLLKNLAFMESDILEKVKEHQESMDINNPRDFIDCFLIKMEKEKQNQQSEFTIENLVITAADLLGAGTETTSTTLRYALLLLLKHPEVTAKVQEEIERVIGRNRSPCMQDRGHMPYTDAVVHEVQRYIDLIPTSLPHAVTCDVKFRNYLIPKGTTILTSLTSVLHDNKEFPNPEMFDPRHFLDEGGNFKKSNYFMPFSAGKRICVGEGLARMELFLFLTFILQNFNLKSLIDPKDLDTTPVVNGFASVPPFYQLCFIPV

As for `COCCCOc1cc(C[C@@H](C[C@H](N)[C@@H](O)C[C@H](C(=O)NCC(C)(C)C(N)=O)C(C)C)C(C)C)ccc1OC`, the inhibition at 200 µM on CYP2C19 is 3%; against CYP2C9, 32.1%. The compound further showed a CL/F in data set [1] of 4900 mL/min. The compound further had a half-life in data set [2] of 34 h.
For `COCCCOc1cc(C[C@@H](C[C@H](N)[C@@H](O)C[C@H](C(=O)NCC([14CH3])([14CH3])C(N)=O)C(C)C)C(C)C)ccc1OC.O=C(O)/C=C/C(=O)O`, the Cmax was 416 nM in [3]; 21200 nM in [3] (iv, 10 mg/kg); 2170 nM in data set [4]. The Radiolabel recovery in data set [5] was 69.49%; in [6], 66%; in data set [7], 2.2%; in data set [8], 1.02%; in [10], 0.3%; in data set [11], “OUTCOME = Detected”. The Radiolabel recovery is reported as 0.36% in data set [12]; 0.34% in data set [15]; “OUTCOME = Detected” in data set [16]; 0.74% in data set [17]; 1.84% in [18]; “OUTCOME = Observed, VALUE = Highest radioactivity concentration was observed” in data set [19]. Also, the Radiolabel recovery in data set [20] is listed as 102%. Moreover, the Absorption in data set [9] stood at 25%. In addition, the AUC in data set [13] stood at 18.3 µM·h; in [14], 5.01 µM·h. At Cytochrome P450 3A4, the Activity is listed as 99.6%.
On to `COCCCOc1cc(C[C@@H](C[C@H](N)[C@@H](O)C[C@H](C(=O)NCC(C)(C)C(N)=O)C(C)C)C(C)C)ccc1OC.COCCCOc1cc(C[C@@H](C[C@H](N)[C@@H](O)C[C@H](C(=O)NCC(C)(C)C(N)=O)C(C)C)C(C)C)ccc1OC.O=C(O)/C=C/C(=O)O` [ALISKIREN FUMARATE], for which the “Cmin(ss)” value in data set [21] was determined as 4.54 nM. For the same compound, the results for the AUC in data set [22] and in data set [29] were 96.4 ng·h/mL and 9.03 µM·h, respectively. The Cmax normalised is given as 0.68 (ng/mL)/(mg/kg/day) in data set [23], 0.079 (ug/ml)/(mg/kg) in data set [28] and 0.242 (ng/mL)/(mg/kg/day) in data set [35]. For the same compound, the Tmax worked out at 1 h in data set [24], 3.2 h in data set [30] and 3 h in data set [34]. The Cmax came out at 3960 ng/mL in data set [25], 29200 nM in data set [26], 167 ng/mL in data set [32] and 335 ng/mL in data set [33]. This compound also had an AUC(0-t) at 24 h in data set [27] of 22000 ng·h/mL. The same compound gave an AUC at 192 h in data set [31] of 137 ng·h/mL. This compound yielded a CREAT_CHANGE_BY in [36] of 130%. Moreover, in [37], the BUN_CHANGE_BY stood at 69%.

Broadly, the inhibition is the relative decrease from the control value, in per cent. A lower inhibition goes with a response near the control. The CL/F is the apparent clearance, not corrected for the fraction that reaches the circulation. As a reminder, the half-life is how long it takes for the measured level to halve. The low end stands for rapid decline, the high end for slow decline. The term Cmax denotes the maximum level reached in the sampled fluid or tissue. Broadly, the AUC is concentration integrated over time. The low end stands for low exposure, the high end for high exposure. The term Tmax denotes the time from dosing to the highest level. The AUC(0-t) is the area under the concentration-time curve up to a stated or last time point. A lower AUC(0-t) goes with less exposure.
